The test addresses T1, rat metabotropic glutamate receptor 5 (mGluR5) (Rattus norvegicus, UniProt P31424).
T1 construct: expressed in transfected cells; host or cells: HEK 293
The experiment in a line: Calcium mobilization assay (FLIPR) for negative or positive allosteric activity, HEK 293 cells. The format is cell-based. Particulars: HEK293, negative allosteric modulation, inhibition of EC80 glutamate response; read-out: FLIPR maximum inhibition. The procedure, abridged: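 HEK 293 cells stably expressing rat mGluR5, Fluo-4 loaded in HEPES-buffered HBSS pH 7.4 with 0.1% BSA and probenecid. Compound added with EC20 (potentiation) or EC80 (inhibition) glutamate; fluorescence read over 3 min at room temperature. Basal-subtracted maximum fluorescence change fitted to Hill equation.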
Background: A change in cytosolic calcium serves as a functional read-out for many receptors and channels.

Experimental findings from patent US8716284B2, “Adamantyl diamide derivatives and uses of same” (H. Lundbeck A/S, priority 2008, dated 2014) are described below.

T1 sequence (P31424 21-1171 isoform P31424-2 limits assumed): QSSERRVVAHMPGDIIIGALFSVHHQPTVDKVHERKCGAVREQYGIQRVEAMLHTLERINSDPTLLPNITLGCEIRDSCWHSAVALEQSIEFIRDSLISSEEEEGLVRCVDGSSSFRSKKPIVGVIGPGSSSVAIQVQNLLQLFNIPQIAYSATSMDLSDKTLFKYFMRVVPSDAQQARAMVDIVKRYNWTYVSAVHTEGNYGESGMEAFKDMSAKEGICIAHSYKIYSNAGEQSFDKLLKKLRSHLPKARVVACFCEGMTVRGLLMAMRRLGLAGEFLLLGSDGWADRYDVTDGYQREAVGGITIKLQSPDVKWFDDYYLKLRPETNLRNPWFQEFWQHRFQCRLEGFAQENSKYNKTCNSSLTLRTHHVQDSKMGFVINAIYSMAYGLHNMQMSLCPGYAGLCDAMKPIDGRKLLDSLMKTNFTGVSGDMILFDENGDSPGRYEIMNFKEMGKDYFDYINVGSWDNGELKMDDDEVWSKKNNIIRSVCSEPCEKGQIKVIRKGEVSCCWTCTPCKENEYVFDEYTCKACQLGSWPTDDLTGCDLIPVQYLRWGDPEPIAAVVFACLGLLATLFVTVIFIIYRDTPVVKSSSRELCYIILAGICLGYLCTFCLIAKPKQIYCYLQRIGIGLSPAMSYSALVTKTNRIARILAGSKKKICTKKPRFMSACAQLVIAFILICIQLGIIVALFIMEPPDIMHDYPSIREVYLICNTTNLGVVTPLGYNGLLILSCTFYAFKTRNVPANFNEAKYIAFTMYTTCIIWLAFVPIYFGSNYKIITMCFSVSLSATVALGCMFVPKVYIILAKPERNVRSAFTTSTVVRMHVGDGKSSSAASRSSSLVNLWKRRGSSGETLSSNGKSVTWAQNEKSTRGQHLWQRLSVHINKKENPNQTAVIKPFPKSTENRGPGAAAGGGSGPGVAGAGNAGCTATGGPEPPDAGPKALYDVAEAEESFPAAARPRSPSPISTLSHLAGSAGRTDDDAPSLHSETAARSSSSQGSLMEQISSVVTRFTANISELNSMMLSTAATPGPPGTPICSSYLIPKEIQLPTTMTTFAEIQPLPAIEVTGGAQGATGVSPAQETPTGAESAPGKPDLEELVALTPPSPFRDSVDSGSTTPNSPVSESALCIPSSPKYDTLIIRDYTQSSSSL

For `O=C(NC12CC3CC(C1)CC(NC(=O)c1ccc4nccn4c1)(C3)C2)c1cccc(F)c1` [Example 101, Imidazo[1,2-a]pyridine-6-carboxylic acid [3-(3-fluoro-benzoylamino)-adamantan-1-yl]-amide], the Emax is 63 to 99%.

Regarding `O=C(NC12CC3CC(C1)CC(NC(=O)c1ccccn1)(C3)C2)c1ccn2ccnc2c1` [Example 87, Imidazo[1,2-a]pyridine-7-carboxylic acid {3-[(pyridine-2-carbonyl)-amino]-adamantan-1-yl}-amide], the Emax fell in the range of 63 to 99%.

Regarding `Cc1cccc(C(=O)NC23CC4CC(C2)CC(NC(=O)c2cccc(C(N)=O)n2)(C4)C3)n1` [Example 133, Pyridine-2,6-dicarboxylic acid 2-amide 6-({3-[(6-methyl-pyridine-2-carbonyl)-amino]-adamantan-1-yl}-amide)], the Emax lay within 70 to 99%.

Consider `O=C(NC12CC3CC(C1)CC(NC(=O)c1cccc(NCCCO)n1)(C3)C2)c1cccc(F)c1` [Example 214, 6-(3-Hydroxy-propylamino)-pyridine-2-carboxylic acid [3-(3-fluoro-benzoylamino)-adamantan-1-yl]-amide], for which the Emax is 63 to 99%.

In the case of `O=C(NC12CC3CC(C1)CC(NC(=O)C1CCC1)(C3)C2)c1ccccn1` [Example 82, Pyridine-2-carboxylic acid [3-(cyclobutanecarbonyl-amino)-adamantan-1-yl]-amide], the Emax was 63 to 99%.

On to `Cc1cccc(C(=O)NC23CC4CC(CC(NC(=O)c5ccc6ocnc6c5)(C4)C2)C3)n1` [Example 122, Benzoxazole-5-carboxylic acid {3-[(6-methyl-pyridine-2-carbonyl)-amino]-adamantan-1-yl}-amide], for which the Emax was 70 to 99%.

Turning to `O=C(NC12CC3CC(C1)CC(NC(=O)c1cn4cc(Cl)ccc4n1)(C3)C2)c1cccc(F)c1` [Example 98, 6-Chloro-imidazo[1,2-a]pyridine-2-carboxylic acid [3-(3-fluoro-benzoylamino)-adamantan-1-yl]-amide], the Emax was 63 to 99%.

On to `Cn1nc(C(=O)NC23CC4CC(CC(NC(=O)c5ccccn5)(C4)C2)C3)cc1-c1cccs1` [Example 8, Pyridine-2-carboxylic acid {3-[(1-methyl-5-thiophen-2-yl-1H-pyrazole-3-carbonyl)-amino]-adamantan-1-yl}-amide], for which the Emax lay in the range of 90 to 99%.

Consider `Cc1cncc(C(=O)NC23CC4CC(C2)CC(NC(=O)c2csc(C)n2)(C4)C3)n1` [Example 157, 6-Methyl-pyrazine-2-carboxylic acid {3-[(2-methyl-thiazole-4-carbonyl)-amino]-adamantan-1-yl}-amide], for which the Emax fell in the range of 70 to 99%.

Turning to `Cc1cccc(C(=O)NC23CC4CC(C2)CC(NC(=O)C2CC(F)(F)C2)(C4)C3)n1` [Example 47, 6-Methyl-pyridine-2-carboxylic acid {3-[(3,3-difluoro-cyclobutanecarbonyl)-amino]-adamantan-1-yl}-amide], the Emax fell in the range of 63 to 99%.

Consider `Cc1cccc(C(=O)NC23CC4CC(CC(NC(=O)c5ccc6c(c5)OCCO6)(C4)C2)C3)n1` [Example 124, 6-Methyl-pyridine-2-carboxylic acid {3-[(2,3-dihydro-benzo[1,4]dioxine-6-carbonyl)-amino]-adamantan-1-yl}-amide], for which the Emax lay in the range of 70 to 99%.

Consider `COc1cccc(C(=O)NC23CC4CC(C2)CC(NC(=O)c2ccccn2)(C4)C3)c1` [Example 80, Pyridine-2-carboxylic acid [3-(3-methoxy-benzoylamino)-adamantan-1-yl]-amide], for which the Emax was 63 to 99%.

With `Cc1cccc(C(=O)NC23CC4CC(C2)CC(NC(=O)C2CCC2)(C4)C3)n1` [Example 46, 6-Methyl-pyridine-2-carboxylic acid [3-(cyclobutanecarbonyl-amino)-adamantan-1-yl]-amide], the Emax lay in the range of 63 to 99%.

Consider `Cc1cccc(C(=O)NC23CC4CC(CC(NC(=O)c5cccc(F)c5)(C4)C2)C3)n1` [Example 30, 6-Methyl-pyridine-2-carboxylic acid [3-(3-fluoro-benzoylamino)-adamantan-1-yl]-amide], for which the Emax was 63 to 99%.

With `Cc1cncc(C(=O)NC23CC4CC(CC(NC(=O)c5ccc(F)c(Cl)c5)(C4)C2)C3)n1` [Example 149, 6-Methyl-pyrazine-2-carboxylic acid [3-(3-chloro-4-fluoro-benzoylamino)-adamantan-1-yl]-amide], the Emax fell in the range of 70 to 99%.

With `Cc1cccc(C(=O)NC23CC4CC(C2)CC(NC(=O)c2cccc(N(C)CCCN(C)C)n2)(C4)C3)n1` [Example 233, 6-[(3-Dimethylamino-propyl)-methyl-amino]-pyridine-2-carboxylic acid {3-[(6-methyl-pyridine-2-carbonyl)-amino]-adamantan-1-yl}-amide], the Emax fell in the range of 63 to 99%.

In the case of `CN(C)CCNc1cccc(C(=O)NC23CC4CC(CC(NC(=O)c5cccc(F)c5)(C4)C2)C3)n1` [Example 242, 6-(2-Dimethylamino-ethylamino)-pyridine-2-carboxylic acid [3-(3-fluoro-benzoylamino)-adamantan-1-yl]-amide], the Emax is 63 to 99%.

Consider `NC(=O)CCNc1cccc(C(=O)NC23CC4CC(CC(NC(=O)c5cccc(F)c5)(C4)C2)C3)n1` [Example 252, 6-(2-Carbamoyl-ethylamino)-pyridine-2-carboxylic acid [3-(3-fluoro-benzoylamino)-adamantan-1-yl]-amide], for which the Emax was 63 to 99%.

Consider `COC(=O)c1cccc(C(=O)NC23CC4CC(CC(NC(=O)c5cccc(C)n5)(C4)C2)C3)n1` [Example 139, 6-{3-[(6-Methyl-pyridine-2-carbonyl)-amino]-adamantan-1-ylcarbamoyl}-pyridine-2-carboxylic acid methyl ester], for which the Emax was in the range of 70 to 99%.

On to `CN(C)CCCN(C)c1cccc(C(=O)NC23CC4CC(CC(NC(=O)c5ccccn5)(C4)C2)C3)n1` [Example 221, 6-[(3-Dimethylamino-propyl)-methyl-amino]-pyridine-2-carboxylic acid {3-[(pyridine-2-carbonyl)-amino]-adamantan-1-yl}-amide], for which the Emax lay in the range of 63 to 99%.

As to `Cc1cccc(C(=O)NC23CC4CC(C2)CC(NC(=O)c2cccc(Cl)n2)(C4)C3)n1` [Example 57, 6-Chloro-pyridine-2-carboxylic acid {3-[(6-methyl-pyridine-2-carbonyl)-amino]-adamantan-1-yl}-amide], the Emax was 63 to 99%.

For `O=C(NC12CC3CC(C1)CC(NC(=O)c1nccc(C(F)(F)F)n1)(C3)C2)c1cccc(F)c1` [Example 184, 4-Trifluoromethyl-pyrimidine-2-carboxylic acid [3-(3-fluoro-benzoylamino)-adamantan-1-yl]-amide], the Emax was 63 to 99%.

As to `O=C(NC12CC3CC(C1)CC(NC(=O)c1cccc(N4CCOCC4)n1)(C3)C2)c1ccccn1` [Example 197, 6-Morpholin-4-yl-pyridine-2-carboxylic acid {3-[(pyridine-2-carbonyl)-amino]-adamantan-1-yl}-amide], the Emax was in the range of 63 to 99%.

In the case of `O=C(NC12CC3CC(C1)CC(NC(=O)c1ccccn1)(C3)C2)c1cccc(Cl)c1` [Example 6, Pyridine-2-carboxylic acid [3-(3-chloro-benzoylamino)-adamantan-1-yl]-amide], the Emax was in the range of 90 to 99%.

For the compound `Cc1nc(C(=O)NC23CC4CC(CC(NC(=O)c5cnccn5)(C4)C2)C3)cs1` [Example 187, Pyrazine-2-carboxylic acid {3-[(2-methyl-thiazole-4-carbonyl)-amino]-adamantan-1-yl}-amide], the Emax was in the range of 63 to 99%.
